Assay results taken from patent US11198869B2, “Angelman syndrome antisense treatment” (The Texas A&M University System, priority 2017, dated 2021).

What was measured:
SNORD116 = SNORD116 steady state RNA (qRT-PCR) in GABAergic iPSC-derived neurons; format: cell-based, human; conditions: 10-point dose curve 1 nM-30 μM; 14 DIV to 20 DIV
Excerpt: The effects of ASO-4 and Topotecan were then examined on the SNORD116, IPW, SNORD115, and SNORD109A RNAs, which are located upstream of the ASO-4 target region (see FIG. 1A).
GABAergic and glutamatergic induced pluripotent stem cell (iPSC) derived neural precursor cells (NRC-100-010-001 and GNC-301-030-001, Cellular Dynamics International, Madison Wis.) were differentiated into neurons according to the manufactures protocol. Briefly, neural precursor cells were thawed and resuspended in chemically defined medium and added to sterile-culture plates coated with poly-D-lysine and laminin. The medium was replaced 24 hr after plating and then one-half of the medium was replaced every 3-5 days afterwards.
For cultured iPSC-derived neurons, RNA isolation and cDNA synthesis were performed using the Cell-to-CT kit (Thermo Fisher Scientific) in a lysate volume of 55 μl.
The steady state RNA levels of target transcripts were measured using TaqMan quantitative reverse-transcription PCR (qRT-PCR) assays. […] Cycling conditions were 2 minutes at 50° C., 10 minutes at 95° C., and 40 cycles of 15 seconds at 95° C. and 1 minute at 60° C., with readings taken at the 60° C. step of every cycle. […] Data was retrieved and analyzed with the BIORAD CFX Maestro software (Bio-Rad Laboratories). […]

[1] = tested on: SNORD115 host-gene transcript (SNHG115); test: RNA-sequencing of Angelman syndrome iPSC neurons: SNHG115; format: cell-based, human; conditions: 30 μM, six days post-treatment, RNA-seq
Protocol: RNA was isolated using Qiagen RNAeasy Plus (74136, Qiagen, Hilden, Germany). RNA concentration was determined using Qubit Fluorometric Quantitation (Thermo Fisher Scientific) and RNA quality was assessed using a 4200 Agilent TapeStation (Agilent, Santa Clara, Calif.). RNA-sequencing libraries were generated using the Illumina TruSeq Stranded Total RNA kit (20020597, Illumina, Inc., San Diego, Calif.) according to the manufacturer's protocol. 75 base-pair paired-end sequencing was performed using a NextSeq 500 (IIlumina, San Diego, Calif.) at the Texas A&M Institute for Genome Sciences and Society Genomics core. Raw sequencing reads were processed using CASAVA. The resulting FASTQ sequences were examined using FASTQC. […]
To determine whether ASO-4.4.PS.L and ASO-6.1.PO-1.O affect the levels of RNA transcripts encoded by the PWS polycistronic transcript, RNA-sequencing was performed on AS iPS cells treated with each ASO and the steady state RNA levels of SNURF, SNRPN, the SNORD116 host-gene transcript (SNHG116), the SNORD116 snoRNAs, IPW, the SNORD115 host-gene transcript (SNHG115), the SNORD115 snoRNAs, and UBE3A-AS were quantified. UBE3A steady state RNA levels were also measured. […]

Compound	effect on SNORD116 RNA levels (in words) (SNORD116)	Difference, SNH115G RNA level relative to vehicle [1]	Difference, SNH115G RNA level relative to vehicle ([1]; listed as ASO-6.1.PS-1.O)
CC[C@@]1(O)C(=O)OCc2c1cc1n(c2=O)Cc2cc3c(CN(C)C)c(O)ccc3nc2-1 [Topotecan, reference compound]	significant effect on SNORD116, IPW, SNORD115, and SNORD109A/B RNA levels that was dose dependent	–	–
C^O*U^O*G^O*G^O-t*g*t*c*a*a*c*a*a*g-C^O*C^O*A^O*A^o [ASO-6.1.PO-1.O]	–	significantly reduced	−0.55
